Source: patent publication US20090312349A1, “ANTI-INFLAMMATORY MEDICAMENTS” (priority 2004, published 2009)

Legend:
[1] = molecular target: T1, phospho p-38 alpha kinase (Homo sapiens, UniProt Q16539); assay: P-38 alpha kinase assay (spectrophotometric, pyruvate kinase/lactate dehydrogenase coupled); type: biochemical; details: Table 5; for IC50: assay not named, read-out: uM
T1 construct: purchased Panvera

[2] = molecular target: T2, B-Raf(V599E) kinase (Homo sapiens, UniProt P15056, V600E); assay: B-Raf(V599E) kinase assay B1; type: biochemical; details: for IC50: Method B1, construct 1
Method: (§1) The test compounds were incubated with the reaction mixture at 30° C. for 2 h. […] The reaction rate was calculated using the 1.5 h to 2.5 h time frame. […] IC50 values were calculated from a series of percent inhibition values determined at a range of inhibitor concentrations using software routines as implemented in the GraphPad Prism software package.
Target sequence in this assay (P15056 with tags, fused parts or gaps V600E): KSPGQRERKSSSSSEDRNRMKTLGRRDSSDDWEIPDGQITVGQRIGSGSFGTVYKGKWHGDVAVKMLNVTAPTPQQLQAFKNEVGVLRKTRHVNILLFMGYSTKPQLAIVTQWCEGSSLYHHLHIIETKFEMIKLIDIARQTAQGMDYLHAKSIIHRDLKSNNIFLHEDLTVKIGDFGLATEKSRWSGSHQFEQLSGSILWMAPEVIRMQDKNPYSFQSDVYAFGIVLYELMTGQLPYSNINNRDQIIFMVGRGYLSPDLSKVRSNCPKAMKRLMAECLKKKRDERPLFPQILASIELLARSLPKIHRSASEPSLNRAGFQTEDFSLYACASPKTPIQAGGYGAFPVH

[3] = molecular target: T3, Abl kinase (Homo sapiens, UniProt P00519); assay: Abl kinase assay A2; type: biochemical; details: for IC50: Method A2, 2 h pre-incubation, 0.5 mM ATP
T3 sequence (P00519 229-512): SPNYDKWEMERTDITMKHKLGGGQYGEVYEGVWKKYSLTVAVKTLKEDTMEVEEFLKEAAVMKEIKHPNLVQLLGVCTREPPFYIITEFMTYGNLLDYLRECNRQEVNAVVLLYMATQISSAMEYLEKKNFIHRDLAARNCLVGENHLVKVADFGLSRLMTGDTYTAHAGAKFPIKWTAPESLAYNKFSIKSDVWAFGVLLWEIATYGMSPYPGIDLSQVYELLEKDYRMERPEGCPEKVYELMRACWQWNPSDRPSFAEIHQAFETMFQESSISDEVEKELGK
Method: (§2) IC50 values were calculated from a series of percent inhibition values determined at a range of inhibitor concentrations using software routines as implemented in the GraphPad Prism software package.

[4] = molecular target: T4, KDR kinase (Homo sapiens, UniProt P35968, DEL940-989/E990V); assay: KDR kinase assay K2; details: for inhibition at 1 µM: read-out: Results, % @ concentration μM
[5] = molecular target: phosphorylated p-38-alpha kinase (Homo sapiens, UniProt Q16539); assay: P-38 alpha kinase assay P1; type: biochemical; details: Method P1; for IC50: 2 h pre-incubation before ATP; for Results, % @ concentration μM: @ 1.0 μM
[6] = molecular target: T2, B-Raf(V599E) kinase; assay: biochemical
Method: as §1
Target sequence in this assay (P15056 433-726 V600E): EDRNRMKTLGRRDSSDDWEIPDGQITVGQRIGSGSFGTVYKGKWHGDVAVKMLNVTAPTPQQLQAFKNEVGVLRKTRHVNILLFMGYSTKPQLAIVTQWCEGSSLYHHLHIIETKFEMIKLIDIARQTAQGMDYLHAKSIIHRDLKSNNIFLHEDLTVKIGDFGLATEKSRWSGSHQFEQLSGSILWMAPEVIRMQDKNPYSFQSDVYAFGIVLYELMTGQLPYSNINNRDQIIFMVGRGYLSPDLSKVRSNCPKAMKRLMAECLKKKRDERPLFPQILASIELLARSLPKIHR
Same as assay B1 except that (1) construct 2 was employed at a nominal concentration of 2 nM (2) the reaction was pre-incubated at 30° C. for 1 h prior to initiation with ATP (3) a reading time frame of 0.5 h to 1.5 h.

[7] = molecular target: T3, Abl kinase; assay: Abl kinase assay A1; type: biochemical; details: for IC50: Method A1, read-out: Results, μM (IC50)
Method: as §2

[8] = molecular target: T4, KDR kinase; assay: KDR kinase assay K1; type: biochemical; details: for IC50: Method K1; for inhibition at 10 µM: read-out: Results, % @ concentration μM, Method K1
Method: as §2

[9] = read-out: Results, % @ concentration μM

Sequence of phosphorylated p-38-alpha kinase (Q16539 1-360 isoform Q16539-2): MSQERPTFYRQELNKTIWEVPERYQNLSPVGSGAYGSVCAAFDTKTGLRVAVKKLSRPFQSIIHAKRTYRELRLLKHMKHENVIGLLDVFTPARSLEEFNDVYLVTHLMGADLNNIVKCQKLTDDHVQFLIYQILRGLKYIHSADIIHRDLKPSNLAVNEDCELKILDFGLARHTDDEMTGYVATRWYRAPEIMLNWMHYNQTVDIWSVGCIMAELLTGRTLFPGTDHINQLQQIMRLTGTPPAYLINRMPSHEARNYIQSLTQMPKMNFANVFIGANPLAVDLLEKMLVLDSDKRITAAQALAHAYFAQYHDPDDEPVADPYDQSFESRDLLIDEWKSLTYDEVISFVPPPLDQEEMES
T1 sequence (Q16539 whole entry): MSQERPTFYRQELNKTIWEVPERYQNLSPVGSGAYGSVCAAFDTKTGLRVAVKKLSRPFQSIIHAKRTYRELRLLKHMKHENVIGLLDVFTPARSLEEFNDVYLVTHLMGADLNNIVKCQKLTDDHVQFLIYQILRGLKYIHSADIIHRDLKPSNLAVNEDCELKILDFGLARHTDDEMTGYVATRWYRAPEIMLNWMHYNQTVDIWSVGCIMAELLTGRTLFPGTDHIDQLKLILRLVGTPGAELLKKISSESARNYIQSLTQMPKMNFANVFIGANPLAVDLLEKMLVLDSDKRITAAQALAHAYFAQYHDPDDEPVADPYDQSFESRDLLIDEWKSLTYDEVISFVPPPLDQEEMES
T4 sequence (P35968 with tags, fused parts or gaps DEL940-989/E990V): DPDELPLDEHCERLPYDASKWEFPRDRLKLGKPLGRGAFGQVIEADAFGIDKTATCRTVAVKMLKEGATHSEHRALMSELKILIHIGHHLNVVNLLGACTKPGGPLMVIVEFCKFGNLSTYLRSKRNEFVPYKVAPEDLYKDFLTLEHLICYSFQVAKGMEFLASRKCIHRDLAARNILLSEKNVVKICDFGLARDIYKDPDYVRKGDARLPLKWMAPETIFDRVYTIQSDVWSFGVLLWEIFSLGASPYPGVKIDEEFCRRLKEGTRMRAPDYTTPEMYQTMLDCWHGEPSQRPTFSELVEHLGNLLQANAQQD

SMILES | IC50 [1] | IC50 [2] | IC50 [3] | IC50 [5] | other results
Cc1ccc(NC(=O)Nc2cc(C(C)(C)C)nn2-c2cccc(CC(N)=O)c2)cc1Nc1nccc(-c2cccnc2)n1 [Example 516, 1-(1-(3-(2-amino-2-oxoethyl)phenyl)-3-tert-butyl-1H-pyrazol-5-yl)-3-(4-methyl-3-(4-(pyridin-3-yl)pyrimidin-2-ylamino)phenyl)urea] | 0.45 µM | 0.022 µM | 0.0018 µM | – | –
NC(=O)Cc1cccc(-n2nc(C(F)(F)F)cc2NC(=O)Nc2cccc(Oc3cccnc3)c2)c1 [Example 503, 1-(1-(3-(2-amino-2-oxoethyl)phenyl)-3-(trifluoromethyl)-1H-pyrazol-5-yl)-3-(3-(pyridin-3-yloxy)phenyl)urea] | – | 0.13 µM | 0.29 µM | – | IC50 [4]: 190 nM
C=C1NS(=O)(=O)N(Cc2cccc(-n3nc(C(C)(C)C)cc3NC(=O)Nc3cccc(Cl)c3Cl)c2)C1=O [Example 511, 1-{5-t-butyl-2-[3-(4-methylene-1,1,3-trioxo-[1,2,5]thiadiazolidin-2-ylmethyl)-phenyl]-2H-pyrazol-3-yl}-3-(2,3-dichlorophenyl)-urea] | 0.024 µM | 1.7 µM | 0.25 µM | – | IC50 [4]: 14 nM
O=C(O)Cc1cccc(-n2nc(-c3ccsc3)cc2NC(=O)Nc2cccc(Cl)c2Cl)c1 [Example 436, 2-(3-(5-(3-(2,3-dichlorophenyl)ureido)-3-(thiophen-3-yl)-1H-pyrazol-1-yl)phenyl)acetic acid] | – | – | – | 0.007 µM | % @ concentration, uM ([1]; @ 0.1 uM): 16%; % @ concentration, uM ([1]; @ 1 uM): 41%; IC50 ([6]; Method B2, construct 2): 3.7 µM
O=C(Cc1ccc(-n2nc(-c3ccccc3F)cc2NC(=O)Nc2cccc(Cl)c2Cl)cc1)NC(CO)CO [Example 473, 1-(2,3-dichlorophenyl)-3-(1-(4-(2-(1,3-dihydroxypropan-2-ylamino)-2-oxoethyl)phenyl)-3-(2-fluorophenyl)-1H-pyrazol-5-yl)urea] | 0.004 µM | – | – | 0.03 µM | inhibition at 10 µM [6, 9]: 4%
CC(C)(C)c1cc(NC(=O)Nc2cccc(Oc3cccnc3)c2)n(-c2cccc(CC(N)=O)c2)n1 [Example 500, 1-(1-(3-(2-amino-2-oxoethyl)phenyl)-3-tert-butyl-1H-pyrazol-5-yl)-3-(3-(pyridin-3-yloxy)phenyl)urea] | – | 0.01 µM | 0.021 µM | 0.017 µM | IC50 [4]: 9 nM
O=C(Cc1ccc(-n2nc(-c3ccccc3F)cc2NC(=O)Nc2cccc(Cl)c2Cl)cc1)NCC(O)CO (stereo not drawn) [Example 471, 1-(2,3-dichlorophenyl)-3-(1-(4-(2-(2,3-dihydroxypropylamino)-2-oxoethyl)phenyl)-3-(2-fluorophenyl)-1H-pyrazol-5-yl)urea] | – | – | – | 0.016 µM | inhibition at 10 µM [6, 9]: 39%; inhibition at 1 µM ([7]; read-out: Results, % @ concentration μM, Method A1, @ 1 μM): 14%
CNC(=O)c1cc(Oc2ccc(NC(=O)Nc3cc(C(C)(C)C)nn3-c3cccc(CC(N)=O)c3)cc2)ccn1 [Example 506, 1-(1-(3-(2-amino-2-oxoethyl)phenyl)-3-tert-butyl-1H-pyrazol-5-yl)-3-(4-(2-(methylcarbamoyl)pyridin-4-yloxy)phenyl)urea] | 0.042 µM | 0.02 µM | 0.0066 µM | 0.009 µM | IC50 [8]: 0.021 µM
NC(=O)Cc1cccc(-n2nc(C3CCCC3)cc2NC(=O)Nc2cccc(Cl)c2Cl)c1 [Example 446, 1-(1-(3-(2-amino-2-oxoethyl)phenyl)-3-cyclopentyl-1H-pyrazol-5-yl)-3-(2,3-dichlorophenyl)urea] | – | 0.016 µM | 4.8 µM | 0.005 µM | IC50 [8]: 1.5 µM
CC(C)(C)c1cc(NC(=O)Nc2ccc(F)c(F)c2F)n(-c2cccc(CC(N)=O)c2)n1 [Example 491, 1-(1-(3-(2-amino-2-oxoethyl)phenyl)-3-tert-butyl-1H-pyrazol-5-yl)-3-(2,3,4-trifluorophenyl)urea] | – | 0.007 µM | – | 0.013 µM | inhibition at 10 µM [8]: 77%; inhibition at 10 µM [3, 9]: 78%
CC(C)(C)c1cc(NC(=O)Nc2ccc(-c3cccc4c3CNC4=O)cc2)n(-c2cccc(CC(N)=O)c2)n1 [Example 510, 1-(1-(3-(2-amino-2-oxoethyl)phenyl)-3-tert-butyl-1H-pyrazol-5-yl)-3-(4-(1-oxoisoindolin-4-yl)phenyl)urea] | 0.47 µM | 0.21 µM | 0.062 µM | 0.12 µM | IC50 [8]: 0.007 µM
O=C(Cc1cccc(-n2nc(C3CCCC3)cc2NC(=O)Nc2cccc(Cl)c2Cl)c1)NCC(O)CO (stereo not drawn) [Example 487, 1-(3-cyclopentyl-1-(3-(2-(2,3-dihydroxypropylamino)-2-oxoethyl)phenyl)-1H-pyrazol-5-yl)-3-(2,3-dichlorophenyl)urea] | 0.038 µM | – | – | 0.006 µM | inhibition at 1 µM [4]: 20%
NC(=O)Cc1cccc(-n2nc(-c3cccs3)cc2NC(=O)Nc2cccc(Oc3cccnc3)c2)c1 [Example 502, 1-(1-(3-(2-amino-2-oxoethyl)phenyl)-3-(thiophen-2-yl)-1H-pyrazol-5-yl)-3-(3-(pyridin-3-yloxy)phenyl)urea] | – | – | – | – | IC50 [7]: 3.1 µM; IC50 [4]: 1300 nM
Cn1c(=O)c(-c2cccc(NC(=O)Nc3cc(C(C)(C)C)nn3-c3cccc(CC(N)=O)c3)c2)cc2cncnc21 [Example 513, 1-(1-(3-(2-amino-2-oxoethyl)phenyl)-3-tert-butyl-1H-pyrazol-5-yl)-3-(3-(8-methyl-7-oxo-7,8-dihydropyrido[2,3-d]pyrimidin-6-yl)phenyl)urea] | 0.41 µM | 0.008 µM | 0.023 µM | 0.012 µM | –
O=C(Cc1cccc(-n2nc(-c3ccccc3F)cc2NC(=O)Nc2cccc(Cl)c2Cl)c1)NCC(O)CO (stereo not drawn) [Example 459, 1-(2,3-dichlorophenyl)-3-(1-(3-(2-(2,3-dihydroxypropylamino)-2-oxoethyl)phenyl)-3-(2-fluorophenyl)-1H-pyrazol-5-yl)urea] | 0.02 µM | – | – | 0.005 µM | inhibition at 10 µM [8]: 33%; inhibition at 10 µM [6, 9]: 5%
Cn1c(=O)c(-c2cccc(NC(=O)Nc3cc(C4CCCC4)nn3-c3cccc(CC(N)=O)c3)c2)cc2cncnc21 [Example 514, 1-(1-(3-(2-amino-2-oxoethyl)phenyl)-3-cyclopentyl-1H-pyrazol-5-yl)-3-(3-(8-methyl-7-oxo-7,8-dihydropyrido[2,3-d]pyrimidin-6-yl)phenyl)urea] | 0.57 µM | – | 0.077 µM | 0.011 µM | IC50 [4]: 33 nM
NC(=O)Cc1cccc(-n2nc(C3CCCC3)cc2NC(=O)Nc2ccc(-c3cccc4c3CNC4=O)cc2)c1 [Example 512, 1-(1-(3-(2-amino-2-oxoethyl)phenyl)-3-cyclopentyl-1H-pyrazol-5-yl)-3-(4-(1-oxoisoindolin-4-yl)phenyl)urea] | 0.032 µM | – | 0.11 µM | – | Results, % @ concentration μM [5]: 82% @1.0; IC50 [4]: 29 nM
Cc1ccc(NC(=O)Nc2cc(C(C)(C)C)nn2-c2cccc(CC(N)=O)c2)cc1Nc1ncccn1 [Example 515, 1-(1-(3-(2-amino-2-oxoethyl)phenyl)-3-tert-butyl-1H-pyrazol-5-yl)-3-(4-methyl-3-(pyrimidin-2-ylamino)phenyl)urea] | – | – | – | – | Results, % @ concentration μM [5]: 90% @1.0; inhibition at 1 µM [6, 9]: 27%
CC(Cc1cccc(-n2nc(-c3ccccc3F)cc2NC(=O)Nc2cccc(Cl)c2Cl)c1)C(N)=O (stereo not drawn) [Example 489, 1-(1-(3-(3-amino-2-methyl-3-oxopropyl)phenyl)-3-(2-fluorophenyl)-1H-pyrazol-5-yl)-3-(2,3-dichlorophenyl)urea] | 0.52 µM | – | – | – | inhibition at 1 µM [4]: 25%
CC(C)(C)c1cc(NC(=O)Nc2ccc(F)cc2F)n(-c2cccc(C#N)c2)n1 [Example 499, 1-(3-tert-butyl-1-(3-cyanophenyl)-1H-pyrazol-5-yl)-3-(2,4-difluorophenyl)urea] | – | 0.026 µM | – | 0.046 µM | % @ concentration, uM ([1]; @ 0.1 uM): 78%; % @ concentration, uM ([1]; @ 1 uM): 95%; IC50 [8]: 0.4 µM; inhibition at 10 µM ([7]; read-out: Results, % @ concentration μM, Method A1, @ 10 μM): 88%
NC(=O)Cc1ccc(-n2nc(-c3ccccc3F)cc2NC(=O)Nc2cccc(Cl)c2Cl)cc1 [Example 466, 1-(1-(4-(2-amino-2-oxoethyl)phenyl)-3-(2-fluorophenyl)-1H-pyrazol-5-yl)-3-(2,3-dichlorophenyl)urea] | 0.007 µM | – | – | 0.038 µM | inhibition at 10 µM [8]: 50%; inhibition at 1 µM [2, 9]: 24%; IC50 [7]: 1.2 µM
